Test results from patent US10363239B2, “Method for inhibiting growth of cancer cells” (Pain Therapeutics, Inc., priority 2013, dated 2019).

What was measured:
[1] = test system: primary human mammary epithelial cells (HMECs); test: Cell proliferation by cell-cycling markers Ki67 and PCNA (Western blots); type: cell-based; settings: 0.1-5 nM; 4 days
Protocol: (§1) The effect of contact with Compound C0105 on cell proliferation was determined by the levels of cell-cycling markers: Ki67 and PCNA using Western blots in HTB-22 and control human mammary epithelial cells (HMECs). Cells treated with vehicle and 0.1-5 nM Compound C0105 for 4 days were collected, washed and solubilized. The resultant cell lysates were size-fractionated on SDS-PAGE and Western blotting to determine the levels of Ki67, PCNA and actin (loading control). The protein bands were quantified using densitometric scanning.
(§2) The effect of C0105 on cell proliferation was determined by the levels of cell-cycling markers Ki67 and PCNA using Western blots in HTB-22 and control HMECs. Cells contacted with vehicle and 0.1-5 nM Compound C0105 for 4 days were collected, washed and solubilized. […] The protein bands were quantified using densitometric scanning. […]
(§3) To study the effect of Compound C0105 on PI3K activity, the cancer and primary normal cells were cultured to approximately 60-70% confluency, serum deprived for 4 hours, briefly washed with PBS and treated with vehicle or 0.1, 0.5, 1 or 5 nM Compound C0105 for 24 hours with in 0.1% FBS-containing culture medium. […] The cell pellets were sonicated in ice-cold immunoprecipitation buffer and protein concentrations measured by the Bradford method. […]

MiaPaCa2 cells = test: as above; type: cell-based, human; settings: 0.1-5 nM; 4 days
Protocol: The effect of contact with Compound C0105 on cell proliferation was determined by the levels of cell-cycling markers Ki67 and PCNA using Western blots. Cells treated with vehicle and 0.1-5 nM C0105 for 4 days were collected, washed and solubilized (lysed). The resultant cell lysates were size-fractionated on SDS-PAGE and Western blotting to determine the levels of Ki67, PCNA and actin (loading control). The protein bands were quantified using densitometric scanning. […] N=4. *p<0.01 compared to vehicle (open bars).
as §3
Immunoreactivity was visualized by reaction in ECL Plus chemiluminescent reagent for exactly 5 minutes, followed by immediate exposure of the blot to X-ray film (Z & Z Medical). Bands at the relevant molecular masses of Ki67 and PCNA were quantified by densitometric scan. Membranes were stripped, washed 5× in 0.1% PBST (2 minutes each) and the actin content analyzed by immunoblotting using monoclonal anti-actin to illustrate even loading.

[2] = test system: breast cancer HTB-22 cells; test: as above; type: cell-based, human; settings: 0.1-5 nM; 4 days
Protocol: as §1, §2, §3

[3] = test system: small-cell lung carcinoma cells; test: Glucose deprivation-induced apoptosis markers (cleaved PARP-1, caspase-3) by Western blotting; type: cell-based, human; settings: 1 nM; Day 3 and 4
Protocol: . Cells were washed, solubilized and the levels of apoptotic markers PARP-1 and caspase-3 (19- and 17-KDa) in the obtained cell lysates were determined by Western blotting. The density of protein bands was quantified by densitometric scanning. […] . […] N=5. *p<0.01 compared to Day 0. #p<0.01 compared to vehicle (open bars).
(§4) . The cells were washed with PBS, incubated in 0.1% fetal bovine serum (FBS) for 16 hours and incubated in glucose-free 0.1% FBS-containing medium for up to 4 days in the presence of vehicle or 1 nM Compound C0105. The cells in the entire well were collected by centrifugation. […] The protein concentrations were measured by the Bradford method.
(§5) The cells were homogenized and the obtained homogenates were centrifuged to remove nucleus and mitochondria. […] The level of apoptotic cell death was determined using Western blotting in 50 μg solubilized cell lysates with antibodies against cleaved PARP-1 (Asp^214) and caspase-3 (Asp^175), both at 1:1000 dilution. […] Bands at the relevant molecular masses of Ki67 and PCNA were quantified by densitometric scan. Membranes were stripped, washed 5× in 0.1% PBST (2 minutes each wash) and the actin content analyzed by immunoblotting using monoclonal anti-actin to illustrate even loading.

melanoma cells = test: as above; type: cell-based, human; settings: 1 nM; Day 3 and 4
Protocol: . Cell density was assessed at day 3 and 4. […] . Data are mean±S.E.M. of ratios (FIG. 4B) and % inhibition (FIG. 4C). […] N=5. *p<0.01 compared to Day 0. #p<0.01 compared to vehicle (open bars).
as §4, §5

Compound: CN1CCC2(CC1)NCC(=O)N2Cc1ccccc1 [Compound C0105]
- Cell proliferation (Ki67 and PCNA levels) [1]: had no effect
- Cell proliferation (Ki67 and PCNA levels) (MiaPaCa2 cells): reduces cell proliferation
- Cell proliferation (Ki67 and PCNA levels) [2]: reduces cell proliferation
- Glucose deprivation-induced cell death by cleaved PARP-1 and caspase-3 [3]: reduces glucose deprivation-induced cell death
- Glucose deprivation-induced cell death by cleaved PARP-1 and caspase-3 (melanoma cells): reduces glucose deprivation-induced cell death
